Data set [1] concerns the target T1, Aβ40 (Homo sapiens, UniProt P05067).
T1 construct: Lyophilized Aβ40 was monomerized following previous procedures; purchased GenScript
The experiment in a line: Dynamic light scattering (DLS) of ThT assay samples. Format: biochemical. The following applies: for DLS prominent peak particle size / DLS minor feature share of the total spectrum / DLS minor feature particle size: Aβ40 co-incubated with complex 6 h; for DLS prominent peak particle size: PBS pH 7.4, 37 °C, Aβ40 alone around 340 nm; for DLS minor feature share of the total spectrum: Aβ40 alone 13 percent; for DLS minor feature particle size: Aβ40 alone 78 nm; for Ranking DLS: scale 1 to 5 (1 = best, 5 = worst). The method, then:
Samples were extracted from the ThT assay plate for DLS analysis. A 125 μL sample was placed into a 1 mL syringe and injected through a syringe filter (pore size: 0.2 μm), into a 0.5 mL microcentrifuge tube. The filtrate was added to a microvolume polystyrene cuvette and placed into a Malvern Zetasizer Nano ZSP to measure the DLS spectra. Measurements are represented as an average of percent intensity through several runs determined by Zetasizer software Version 7.13.1.
Samples for DLS analysis were taken directly from the ThT assay following its completion. This allowed for a comparison between both data sets, to determine if a correlation for activity between the complexes could be established. For the Aβ40 peptide alone, a prominent peak around 340 nm was observed, while following treatment with the respective Ru complexes, a discernable shift to smaller particle sizes was unanimously observed (Figure 6).

The nature of data set [2]: Aqueous stability by 1H NMR (DMSO-D6/D2O, 37 °C). Format: physicochemical. The following applies: for ligand exchange in aqueous media (1H NMR): DMSO-D6/D2O, up to 24 h (RuBtB in 75% DMSO); for incubation time at which new 1H NMR signals (ligand exchange) reached maximum intensity: 25% DMSO-D6 in D2O. The procedure:
A common step in the mechanism of action for most metal-based drugs is ligand exchange around the metal center. This promotes the coordination of the complex to the penultimate biological target, eliciting the desired response. […] Therefore, to evaluate the relative stability of the prepared complexes, ^1H NMR studies were performed. Following complete dissolution of the complexes in deuterated DMSO, dilution using D2O to a final DMSO concentration of 25% provided aqueous samples that were measured following prolonged incubation at 37 °C.
For the majority of the complexes, new signals emerged in close proximity to those of the parent complex, even without any incubation. […] A previously study monitoring ligand exchange for RuB in the presence of several proteins saw that neither the arene ring nor the 2,2-bipyridine ligands were lost, but rather the labile monodentate chloride ligand was replaced.

Data set [3] can be described thus: Log D7.4 (1-octanol/PBS shake method, absorbance). It counts as physicochemical. The conditions noted are these: 1-octanol/PBS pH 7.4, 50 μM, 2 h mixing at room temperature. The method, then:
A stock solution was prepared from each Ru complex using dimethyl sulfoxide (DMSO), then diluted to 6 mL and a concentration of 50 μM using phosphate-buffered saline (PBS, pH 7.4), where the final DMSO concentration was less than 5%. The absorbance spectra were measured, then 6 mL of 1-octanol was added, and the resulting biphasic sample was mixed at room temperature for 2 h using an IKA Trayster inversion mixer (60 rpm). Following this, the aqueous layer was extracted, and its absorbance spectra were measured. Log D values were determined using the equation below: LogD7.4=logAbs @ λmax before mixing/Abs @ λmax after mixing−1
The ability of Aβ-targeting therapeutics to cross the blood–brain barrier (BBB) is essential for their success. […] For predicting passage across the BBB, one metric that is used is the n-octanol/water partition coefficient of the molecule (log P). For Ru therapeutics, pH can play an important role in the speciation and stability of the complex; therefore, the determination of log D was performed. For such an analysis, the complexes were initially dissolved in DMSO, then diluted using PBS. After initial absorption measurements, the aqueous samples were mixed with an equal volume of 1-octanol for 2 h. The short mixing time is necessary to minimize any ligand exchange that may occur (vide infra), while still providing an accurate value for the partitioning. […] To the best of our knowledge, the partitioning for these complexes has not been evaluated previously, while the values obtained are similar to previous Ru(II)–arene complexes with bidentate ligands.

The target of data set [4] is T2, human serum albumin (HSA) (Homo sapiens, UniProt P02768).
T2 construct: purchased Sigma Aldrich
T2 sequence (P02768 25-609): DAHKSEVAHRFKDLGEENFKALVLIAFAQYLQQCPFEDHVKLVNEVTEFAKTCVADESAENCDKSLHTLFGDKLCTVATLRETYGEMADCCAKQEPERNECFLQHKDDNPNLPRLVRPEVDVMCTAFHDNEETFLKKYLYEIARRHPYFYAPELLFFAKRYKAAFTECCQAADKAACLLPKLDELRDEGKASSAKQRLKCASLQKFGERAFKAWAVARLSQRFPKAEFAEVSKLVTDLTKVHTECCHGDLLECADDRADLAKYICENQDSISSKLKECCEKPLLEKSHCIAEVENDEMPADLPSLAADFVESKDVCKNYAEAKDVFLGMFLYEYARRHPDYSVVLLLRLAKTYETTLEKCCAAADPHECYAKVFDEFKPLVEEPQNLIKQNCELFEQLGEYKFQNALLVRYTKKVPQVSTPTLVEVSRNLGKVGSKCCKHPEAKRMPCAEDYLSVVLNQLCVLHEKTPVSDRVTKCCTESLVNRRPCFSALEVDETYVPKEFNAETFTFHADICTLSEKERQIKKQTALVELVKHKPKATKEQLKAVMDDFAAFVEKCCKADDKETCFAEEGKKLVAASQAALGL
Description: Protein binding assay, warfarin (WF) displacement, Sudlow site I. The conditions noted are these: warfarin probe, Stern–Volmer slope, HSA and WF 2.5 μM, PBS. The method, then: A stock of human serum albumin (HSA, 100 μM) was prepared using PBS, while the probes dansyl glycine (DG) and warfarin (WF) were prepared by initially dissolving them in DMSO and diluting them with PBS until the concentration of DMSO was less than 5%. Solutions of each Ru complex were prepared by initial dissolution in DMSO and subsequent dilution using PBS until the concentration of DMSO was less than 5%. The total volume of each sample was 3.5 mL, where the concentration of HSA and DG/WF was 2.5 μM throughout the experiment. The Ru concentration ranged from 0 μM to 62.5 μM, with an increase of 12.5 μM for each sample. In total, six samples were prepared for each protein binding assay. After preparation, the samples were placed on an IKA Trayster inversion mixer (60 rpm) for 30 s and incubated at approximately 28 °C in a Neslab gp-200 for 15 min, before being placed back on the inversion mixer (60 rpm) for 30 s. All fluorescence measurements for the protein binding assay were made using a PTI QuantiMaster 50, and the samples were measured at room temperature with conditions respective to the probe.
One important consideration for a potential AD therapeutic is its interaction with serum proteins, specifically albumin (HSA). […] To determine the potential association of the prepared Ru complexes with HSA, a protein binding assay was performed. For these studies, the displacement of two fluorometric probes was used to determine the relative affinity of the Ru complexes for two of the established binding sites on HSA. The first probe, warfarin (WF), an anticoagulant, binds selectively to Sudlow site I on HSA [55], while the second probe used was dansyl glycine (DG), which selectively binds to Sudlow site II on HSA [56]. As these are the two major binding sites on the protein, the probes allow for observations of binding events that occur within these hydrophobic pockets. Individually, the probes were initially mixed with HSA, followed by increasing amounts of the respective Ru complexes, whereby the decrease in fluorescence signals from the respective probes (Figures S22–S30) was used to construct a Stern–Volmer plot, where the slope of the line represents the conditional binding constant (K’) for the respective Ru complexes to each site (Figure 8).

T1 sequence (P05067 672-711 limits assumed): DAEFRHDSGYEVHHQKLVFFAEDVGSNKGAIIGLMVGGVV

Take “[Ru(η^6-p-cymene)(4,4′-di-tert-butyl-2,2′-bipyridine)Cl]PF6 [RuBtB]”: in data set [1], the “DLS prominent peak particle size” value was found to be 264 nm, the “DLS minor feature share of the total spectrum” value (“DLS minor feature share” below) was found to be 4%, the “DLS minor feature particle size” value came out at 53 nm and the “Ranking DLS” value came out at 5. Further, in data set [2], the “ligand exchange in aqueous media (1H NMR)” value is on record as “no new signals emerged even after 24 h of incubation”. The “Log D7.4” value in data set [3] is recorded as 0.84 ± 0.03.

In the case of `Cc1ccc(C(C)C)cc1.F[P-](F)(F)(F)(F)F.[Cl-].[Ru+2].c1ccc(-c2ccccn2)nc1` [RuB, [Ru(η^6-p-cymene)(2,2′-bipyridine)Cl]PF6], the “Log K (WF), conditional binding constant to serum albumin” value (“Log K (WF)” for short) in data set [4] was 4.24. Besides, in data set [1], the “DLS prominent peak particle size” value is 227 nm, the “DLS minor feature share” value is recorded as 4%, the “DLS minor feature particle size” value turned out to be 21 nm and the “Ranking DLS” value was found to be 3. In data set [2], the “incubation time at which new 1H NMR signals (ligand exchange) reached maximum intensity” value amounted to 1 h. Also, the “Log D7.4” value in data set [3] is listed as −1.90 ± 0.15.

As for `Cc1ccc(C(C)C)cc1.Cc1ccnc(-c2cc(C)ccn2)c1.F[P-](F)(F)(F)(F)F.[Cl-].[Ru+2]` [RuBMe, [Ru(η^6-p-cymene)(4,4′-dimethyl-2,2′-bipyridine)Cl]PF6], the “Log K (WF)” value in data set [4] stood at 4.56. Also, in data set [1], the “DLS prominent peak particle size” value came out at 214 nm, the “DLS minor feature share” value was found to be 2%, the “DLS minor feature particle size” value came out at 24 nm and the “Ranking DLS” value was determined as 1. For the same compound, the “incubation time at which new 1H NMR signals (ligand exchange) reached maximum intensity” value in data set [2] was 1 h. The “Log D7.4” value in data set [3] was −0.99 ± 0.13.

Take “[Ru(η^6-p-cymene)(4,4′-diamino-2,2′-bipyridine)Cl]PF6 [RuBA]”: the “Log K (WF)” value in data set [4] is reported as 4.38. Also, in data set [1], the “DLS prominent peak particle size” value stood at 231 nm, the “DLS minor feature share” value was found to be 3%, the “DLS minor feature particle size” value amounted to 42 nm and the “Ranking DLS” value came to 4. For the same compound, the “ligand exchange in aqueous media (1H NMR)” value in data set [2] is “particularly rapid”. Moreover, the “Log D7.4” value in data set [3] is −0.55 ± 0.03.

In the case of “[Ru(η^6-p-cymene)(4,4′-dimethoxy-2,2′-bipyridine)Cl]PF6 [RuBMeO]”, in data set [4], the “Log K (WF)” value was found to be 4.00. Moreover, in data set [1], the “DLS prominent peak particle size” value turned out to be 239 nm, the “DLS minor feature share” value was found to be 11%, the “DLS minor feature particle size” value worked out at 32 nm and the “Ranking DLS” value is 2. For the same compound, the “incubation time at which new 1H NMR signals (ligand exchange) reached maximum intensity” value in data set [2] worked out at 1 h. The “Log D7.4” value in data set [3] is reported as −0.74 ± 0.08.

(Values after article PMC12024814, “Ruthenium(II)–Arene Complexes with a 2,2′-Bipyridine Ligand as Anti-Aβ Agents” (Biomolecules, 2025).)
